Measurements reported in BindingDB's records for doi:10.7270/Q25Q4TJ1 (Burnham Center For Chemical Genomics, 2010).

target: Intestinal-type alkaline phosphatase (Mus musculus, UniProt P24822); assay: PubChem AID 488874
Sequence (P24822 whole entry, looked up): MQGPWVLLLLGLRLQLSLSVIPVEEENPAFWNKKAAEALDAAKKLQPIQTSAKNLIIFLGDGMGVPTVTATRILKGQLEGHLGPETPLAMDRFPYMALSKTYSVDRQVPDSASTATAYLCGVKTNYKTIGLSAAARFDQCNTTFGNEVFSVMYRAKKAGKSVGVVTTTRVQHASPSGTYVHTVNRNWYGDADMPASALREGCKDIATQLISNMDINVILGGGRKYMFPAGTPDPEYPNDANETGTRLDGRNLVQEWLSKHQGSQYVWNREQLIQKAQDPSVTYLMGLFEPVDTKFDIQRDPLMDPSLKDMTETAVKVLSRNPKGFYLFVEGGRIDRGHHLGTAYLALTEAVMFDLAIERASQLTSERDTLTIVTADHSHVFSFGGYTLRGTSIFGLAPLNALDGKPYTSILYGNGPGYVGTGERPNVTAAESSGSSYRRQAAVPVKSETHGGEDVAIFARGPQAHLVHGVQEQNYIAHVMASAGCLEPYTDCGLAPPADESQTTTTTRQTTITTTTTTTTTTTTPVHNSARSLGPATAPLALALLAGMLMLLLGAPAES

Compound | IC50 [µM]
Cc1c(C(=O)NN=Cc2ccc(O)cc2O)[nH][nH]c1=O | > 100
CC(N=Nc1ccccc1[N+](=O)[O-])c1ccc([N+](=O)[O-])cc1 (stereo not given) | > 100
Cc1cc(Br)ccc1SCC(=O)OCC(=O)C(C#N)c1nc2ccccc2[nH]1 (stereo not given) [2-[(4-bromo-2-methylphenyl)thio]acetic acid [3-cyano-3-(1,3-dihydrobenzimidazol-2-ylidene)-2-oxopropyl] ester] | > 100
CCOC1=CC(=Cc2c(C)[nH]oc2=O)C=C(Br)C1=O [4-[(Z)-(3-bromo-5-ethoxy-4-oxo-1-cyclohexa-2,5-dienylidene)methyl]-3-methyl-2H-isoxazol-5-one] | 33.1
C=c1[nH]n(Cc2ccccc2)c(=O)c1=Cc1ccc(N(C)C)cc1 [(4Z)-4-[[4-(dimethylamino)phenyl]methylidene]-5-methyl-2-(phenylmethyl)-3-pyrazolone] | 35.1
CCOC(=O)c1c(C)[nH]c(C(=O)N/N=C/C2C=C([N+](=O)[O-])C=CC2=O)c1C (stereo not given) [ethyl 2,4-dimethyl-5-[[[(E)-(3-nitro-6-oxocyclohexa-2,4-dien-1-ylidene)methyl]amino]carbamoyl]-1H-pyrrole-3-carboxylate] | > 100
O=C(O)[C@H]1O[C@@H](Oc2c(-c3ccc(O)c(O)c3)oc3cc(O)cc(=O)c-3c2O)[C@H](O)[C@@H](O)[C@@H]1O [quercetin glucuronide] | 3.29

Second part, the compound after the results:

IC50 [µM] | Compound
75.3 | O=c1c2ccccc2nc(N=NCc2c(O)ccc3ccccc23)n1O [SMR000145705]
3.84 | O=C(Nn1c(O)csc1=S)C(=O)Nn1c(O)csc1=S [SMR000349781]
35.5 | O=Nc1[nH]c(=O)c(CC(=O)c2ccccc2)nc1NO [SMR000539633]
